According to patent EP4667486A1, “COMPOSITION COMPRISING CD38 OR FRAGMENT THEREOF FOR TREATING AUTOIMMUNE DISEASES” (DNT Co., Ltd., priority 2023, dated 2024):

Columns and labels:
DCs = experiment: LPS-induced TNF-α secretion from bone marrow-derived dendritic cells (ELISA), sCD38 functional domain screening; type: cell-based, mouse; settings: DCs from bone marrow cells treated with GM-CSF, FIG. 1-3
Procedure: To isolate bone marrow cells, mice (Damool Science, Korea) were anesthetized and sacrificed, and the femur and tibia were removed aseptically and the tissue attached to the bones was removed. After cutting off both ends of the bones, bone marrow was collected by slowly injecting 5-10 mL of a cell culture medium or a solution used for bone marrow separation into the medullary cavity at one end using a syringe needle, which was then filtered through a 70 µm cell strainer (SPL Life Sciences, Korea) and centrifuged to collect bone marrow cells. After treating with 1 mL of an RBC lysis solution (Merck, Germany) for 2-5 minutes to remove red blood cells, 10 mL of Dulbecco's phosphate-buffered saline (DPBS) (GIBCO, USA) was added, and bone marrow cells were collected through centrifugation. After washing the bone marrow cells 3 times with DPBS, 10 mL of a BMDC culture medium (RPMI-1640 (Welgene, Korea) containing 10% FBS (GIBCO, USA) and 10 ng/mL GM-CSF (Peprotech, USA)) was added to disperse the bone marrow cells into single cells. 1×10^5 bone marrow cells were dispensed into a 24-well culture dish and differentiated in a 37 °C incubator maintained at 5% CO2.
To screen the functional domain of sCD38 that induces dendritic cell tolerance, the domain of sCD38 was largely divided into three parts (CD38 amino acid sequence; 42-140 (1), 130-220 (2), 210-304 (3)). Using the three parts of sCD38, TNF-α secretion was observed as one of the indicators of the degree of DC tolerance induction.
An E. coli expression system was used to express the sCD38 domain protein. The sCD38 domain protein expressed in E. coli was purified using a purification system and used for screening. For fast and easy screening of the domain protein of sCD38, an ELISA method that measures the pro-inflammatory cytokine TNF-α was adopted. When the DCs obtained by treating the bone marrow cells with GM-CSF are treated with LPS, the DCs differentiate into mature DCs and the secretion of TNF-α is increased. It was confirmed that TNF-α secretion from DCs induced by LPS was reduced by the treatment with sCD38 (SEQ ID NO: 33). As a result of treating with sCD38 functional domain, (1) 42-140, (2) 130-220, and (3) 210-304, it was confirmed that the TNF-α secretion from dendritic cells induced by LPS (Merck, Germany) was reduced by the sCD38 functional domain (3).
After the first screening of the sCE38 functional domain that induces dendritic cell tolerance, the selected domain was divided into two parts (C-term 226-265 and C-term 266-304 of CD38 210-304 (3), (SEQ ID NO: 26)). After the domain was divided into two parts, TNF-α secretion was observed as one of the indicators of the degree of DC tolerance induction.
An E. coli expression system was used to express the divided two parts of sCD38. As a result of treating with the divided two parts (C-term 226-265, C-term 266-304) of the sCD38 functional domain (3), it was confirmed that the TNF-α secretion from dendritic cells induced by LPS was reduced by the sCD38 functional domain C-term 266-304.
After the second screening of the sCE38 functional domains that induce dendritic cell tolerance, the screened domain was divided into seven parts and peptide synthesis was performed (peptide 1: 233-247 of sCD38 226-304, peptide 2: 251-265, peptide 3: 269-283, peptide 4: 266-304 (SEQ ID NO: 26), peptide 5 (M19): 286-304 (SEQ ID NO: 21), peptide 6 (M16): 287-302 (SEQ ID NO: 11), peptide 7 (M14): 287-300 (SEQ ID NO: 4)). […]

human dendritic cells = experiment: LPS-induced TNF-α secretion from human monocyte-derived dendritic cells; type: cell-based; settings: FIG. 9
Procedure: To isolate human monocytes, 20 mL of whole blood was withdrawn and mix with an equal volume of PBS. After adding 15 mL of Ficoll (GE HealthCare, USA) to a 50-mL tube, 15 mL of diluted whole blood was slowly added onto the Ficoll. Likewise, an equal amount of the remaining whole blood was dispensed slowly into a 50-mL tube containing 15 mL of Ficoll. Centrifugation was performed at 1000 x g for 20 minutes in a centrifuge at room temperature. After carefully removing plasma from the isolated whole blood, a portion including peripheral blood mononuclear cells (PBMCs) was transferred to a new 50-mL tube. After adding 10 mL of PBS to the tube containing PBMCs and mixing gently, centrifugation was performed at 400 x g for 10 minutes at room temperature. After carefully removing the supernatant, 1 mL of an RPMI 1640 medium containing 10% FBS was added to the PBMC pellets, and the cells were counted. After adding an RPMI-1640 medium (Welgene, Korea) containing 10% FBS to 1x10^6 cells per mL, 100 ng/mL GM-CSF (Peprotech, USA) and 50 ng/mL IL-4 (Peprotech, USA) were mixed. After adding 500 µL of PMBC to each well of a 24-well plate, the cells were differentiated in an incubator at 37 °C maintained at 5% CO2 for 5 days.
It was confirmed whether the sCD38 functional domain that induces tolerance of dendritic cells is also effective in human dendritic cells. To identify the functional domain of human sCD38, the C-terminal portion of human CD38 (H18 (283-300), H13 (284-296) (SEQ ID NO: 2)) were prepared into peptides. Human sCD38 and M19 peptides were treated as positive controls, and TNF-α secretion was observed using H18 and H13 peptides as one of the indicators of the degree of DC tolerance induction.
It was confirmed that the TNF-α secretion induced by LPS from human dendritic cells was reduced by the sCD38 functional domain peptides when the human sCD38 and M19 peptides were treated as positive controls and they were treated with the H18 and H13 peptides.

[1] = tested on: ulcerative colitis animal model; experiment: DSS-induced animal model of ulcerative colitis, colon length; type: in vivo, C57BL/6 mice; settings: for colon length: 20 µg intrarectally daily for 2 weeks, DSS 6-7 days, FIG. 8
Procedure: A control ulcerative colitis animal model was established by allowing C57BL/6 mice (Damool Science, Korea) to drink drinking water containing 2-3% dextran sulfate sodium (DSS) (MP Biomedicals, China) for 6-7 days. Administration of DSS increases the level of inflammatory cytokines and causes colitis in mice. The experimental animal model was treated with DSS for 6-7 days, and 20 µg of the sCD38 functional domain (M19 peptide (Peptron, Korea)) was injected intrarectally daily for 2 weeks. Then, it was determined whether the progression of ulcerative colitis was reduced. LiCl (Merck, Germany) was used instead of the sCD38 functional domain (M19 peptide) for a positive control group.
In contrast, it was confirmed that the colon length of the experimental animal model treated with the sCD38 functional domain (M19 peptide) was not shortened.

[2] = tested on: autoimmune uveitis animal model; experiment: Animal model of autoimmune uveitis (IRBP/PTX-induced), severity; type: in vivo, C57BL/6 mice; settings: injected into the eye twice a week, versus uninjected uveitis control; FIG. 4
Procedure: Autoimmune uveitis was induced by […] retinoid-binding protein (IRBP) (Peptron, Korea) into the hind limb muscles of C57BL/6 mice (Damool Science, Korea) and intraperitoneal injection of pertussis toxin (PTX) (List Lab, USA). After 10 to 14 days, the presence or absence of autoimmune uveitis was confirmed in the eyes of the mice. The functional domain of sCD38 (226-304) was injected into the eye of the animal model that developed autoimmune uveitis twice a week to determine the progression of autoimmune uveitis. An autoimmune uveitis animal model to which the functional domain of sCD38 (226-304) was not injected was used as a control group, and animals to which the functional domain of sCD38 (226-304) was injected were used as a test group. The severity of autoimmune uveitis was measured for the experimental animals.

[3] = tested on: animal model of rheumatoid arthritis; experiment: Collagen-induced arthritis (CIA) animal model of rheumatoid arthritis, hind ankle thickness; type: in vivo, DBA/1 mice; settings: summary statement referring to Example 8
Procedure: For induction of collagen-induced arthritis (CIA), 8-9 week-old male DBA/1 mice (Central Lab. Animal, Korea) were immunized with bovine type II collagen (CII) (Central Lab. Animal, Korea). CII was dissolved in 0.05 N acetic acid at a concentration of 2 mg/mL and emulsified at a ratio of 1:1 with complete Freund's adjuvant (CFA) (Central Lab. Animal, Korea) at 4 °C. For the first immunization, 150 µL of a mixture of 100 µg CII and 100 µg CFA was injected intradermally into the tail of the mice. Three weeks later, before booster injection, the sCD38 functional domain (sCD38-3) (226-304) or saline was injected into the ankle joint of the mice, and an equal volume of CII, emulsified at a ratio of 1:1 with incomplete Freund's adjuvant (IFA) (Merck, Germany), was injected into the tail (booster injection). The sCD38 functional domain (sCD38-3) was injected three more times, once a week. After 4 weeks of the booster injection, the mice were euthanized for analysis. After the booster injection, the thickness of the hind ankle of the animal model was measured using a vernier caliper.

Sequence	TNF-α secretion from dendritic cells induced by LPS (DCs)	TNF-α secretion induced by LPS from human dendritic cells (human dendritic cells)	also measured
ARFLQCVKNPEHPSCRLNT (REGION 1..19: note = 19 mer (Mouse)) [M19, synthesized peptide 286-304 of mouse sCD38]	reduced	reduced	colon length [1]: prevents shortening of the colon; colon length ([1]; listed as M19 peptide): not shortened; progression of ulcerative colitis ([1]; summary statement referring to Example 9): reduces
FLQCVKNPEDSSC (REGION 1..13: note = 13 mer (Human or Chimpaanze)) [H13, peptide 284-296 of human CD38]	–	reduces	–
KFLQCVKNPEDSSCTSEI (REGION 1..18: note = 18 mer (Human or Chimpaanze)) [H18, domain peptide 283-300 of human CD38]	reduced	reduces	–
LKMIVQKRNMIFACVDNYRPARFLQCVKNPEHPSCRLNT (REGION 1..39: note = 39 mer (Mouse)) [peptide 4, synthesized peptide 266-304 of mouse sCD38]	reduced	–	progression of autoimmune uveitis [2]: reduces; rheumatoid arthritis [3]: reduces
RFLQCVKNPEHPSC (REGION 1..14: note = 14 mer (Mouse, Rat or Horse)) [M14, synthesized peptide 287-300 of mouse sCD38]	reduces	–	–
RFLQCVKNPEHPSCRL (REGION 1..16: note = 16 mer (Mouse)) [M16, synthesized peptide 287-302 of mouse sCD38]	reduces	–	–
